# Assay results as given in patent publication EP1157000B1 (Warner-Lambert Company LLC, priority 1999, dated 2001).
# What was measured:
# BCATc = target: T1, BCATc (Homo sapiens, UniProt P54687); details: cited from earlier work
# T1 sequence (P54687 1-386): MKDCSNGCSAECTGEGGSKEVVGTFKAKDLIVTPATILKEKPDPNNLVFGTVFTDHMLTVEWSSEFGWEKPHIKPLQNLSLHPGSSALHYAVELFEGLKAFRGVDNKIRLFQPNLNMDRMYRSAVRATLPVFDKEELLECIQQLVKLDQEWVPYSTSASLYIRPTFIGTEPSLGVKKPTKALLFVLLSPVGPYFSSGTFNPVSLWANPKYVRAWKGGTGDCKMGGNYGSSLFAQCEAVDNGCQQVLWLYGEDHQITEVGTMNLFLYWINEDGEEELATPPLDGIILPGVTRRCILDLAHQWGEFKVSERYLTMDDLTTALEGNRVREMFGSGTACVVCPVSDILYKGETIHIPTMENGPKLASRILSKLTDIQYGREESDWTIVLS
# ex vivo rat retinas = test: CO2 fixation: H14CO3 incorporation into metabolites by ex vivo retinas; format: cell-based; details: for TCA cycle / Asp / Gln / Glu / Total / Lact: half retinas, 37°C, 25 mM H14CO3, 0.2 mM pyruvate, BCAA 0.2 mM each; for Lact: lactate peak includes pyruvate
# Experimental: Sprague Dawley rats (200-400g) were used for all experiments. Rats were housed under a 12 hour light/dark cycle, and fed and watered ad libidum. After anaesthetizing the rats with-nembutal (IP), eyes were enucleated and retinas dissected in ice-cold buffer.
# Freshly isolated half-retinas were preincubated at 37°C for 3 minutes in buffer A (pH 7.4) containing 118 mM NaCl, 4.7 mM KCl, 2.5 mM CaCl, 1.2 mM KH2PO4, 1.17 mM MgSO4, 20 mM HEPES, 5 mM glucose, 0.05 mM NH4Cl and 25 mM NaH^14CO3. Pyruvate (either 0.2 or 5mM) was also included in the buffer. 1 ml buffer as well as the gas phase within 20 ml vials were equilibrated with 95% O2, 5% CO2. Incubations were initiated by addition of 10 µCi/ml H^14CO3. The vessels were then immediately closed to the atmosphere. Most incubations continued for 20 minutes, although in some preliminary studies, times were varied from 10-60 minutes. Reactions were stopped by removing the half retinas from the buffer and placing them in 2% perchloric acid. The buffer was separately acidified with perchloric acid (final concentration 2%) and unreacted ^14CO2 was allowed to diffuse out of the acidified samples.
# The total amount of product (non-volatile carbon 14 metabolites) was determined by measuring the radioactivity in aliquots of the medium and tissue samples. Metabolites in the extracts were separated by Dowex-1 acetate chromatography as previously described: Williamson, J.R., and Corkey, B. (1969) "Methods in Enzymology", Vol, 13, ed. Lowenstein, J.M. (Academic Press) pp 434-513, and quantified by scintillation counting. In most instances, individual metabolite carbon 14 data is reported as the sum of the radioactivity in the medium plus tissue extracts. Complete quantification of ^14C-metabolite amounts in both the retina and in the medium can be found below in Tables I and II.
# The chromatographic procedure employed in this example separates glutamine, glutamate, aspartate, and lactic acid. The citric acid cycle intermediates remain on the Dowex columns and are estimated as the difference between the total counts in the sample and the counts that are eluted. Evidence of the validity of this procedure has been reported previously. Before subjecting samples to chromatography, ^14C-pyruvic acid in the samples was converted stoichiometrically to lactate by treating the samples with excess NADH and lactate dehydrogenase. Therefore the single lactate peak reported contains all carbon 14 in both lactate and pyruvate. To determine specific activity of glutamate and glutamine in the retinal samples, the mass amount of the glutamate was measured fluorometrically using a standard enzymatic procedure: Patel, M.S. (1989) in Neuromethods: Carbohydrate and Energy Metabolism, Vol II, eds. Boulton, A.A and Baker G.D. (The Humana Press, Inc.) pp 309-340. The mass amount of glutamine was measured after chromatographic separation from glutamate followed by a luminometric determination previously described. ATP and creatine phosphate were measured fluorometrically using an enzymatic assay.
# Data are reported in text and figures by determining the dpm/mg in a particular metabolite and dividing by the specific activity of medium HCO3. Therefore all data are reported as nmoles of H^14CO3/mg protein for any given metabolite.
# [1] = test system: freshly dissected rat retinas; test: Synthesis of leucine in freshly dissected retinas; format: cell-based; details: data not shown
# BCATm = target: T2, BCATm (Homo sapiens, UniProt O15382); details: cited from earlier work
# T2 sequence (O15382 28-392): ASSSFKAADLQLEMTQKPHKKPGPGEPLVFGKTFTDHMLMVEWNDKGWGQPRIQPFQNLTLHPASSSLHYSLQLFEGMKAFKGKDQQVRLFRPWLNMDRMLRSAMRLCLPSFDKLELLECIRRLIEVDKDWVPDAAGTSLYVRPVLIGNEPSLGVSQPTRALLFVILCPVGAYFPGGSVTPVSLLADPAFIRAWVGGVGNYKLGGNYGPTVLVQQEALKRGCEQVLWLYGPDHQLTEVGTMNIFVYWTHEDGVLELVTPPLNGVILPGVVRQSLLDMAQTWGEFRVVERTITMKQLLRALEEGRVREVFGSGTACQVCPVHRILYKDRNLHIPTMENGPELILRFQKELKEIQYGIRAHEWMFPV
# [2] = 0, 0.2, 1, or 5 mM GBP, 20 minutes, Figure 5
# [3] = compartment in (retina), 20 min, GBP 1 mM
# [4] = compartment out (medium), 20 min, GBP 1 mM
# [5] = sum of medium plus tissue, 20 min, GBP 1 mM
structure (smiles),measurement,setting,value
"NCC1(CC(=O)O)CCCCC1 [GBP, gabapentin]",inhibition of BCATc,BCATc,inhibits
same,extent of inhibition of the synthesis of ^14C-glutamate plus ^14C-glutamine on increasing the concentration over 1 mM,ex vivo rat retinas; [2],did not significantly increase
same,"formation of citric acid cycle intermediates, lactate and pyruvate",ex vivo rat retinas; [2],no influence
same,formation of ^14C-glutamate plus ^14C-glutamine,"ex vivo rat retinas; 1 mM GBP plus 200 µM each of leucine, isoleucine and valine",89 % of control
same,formation of ^14C-glutamate plus ^14C-glutamine,"ex vivo rat retinas; 1 mM GBP plus 200 µM each of leucine, isoleucine and valine, p<0.01 versus GBP alone",2.84 ± 1.15 nmol/mg
same,formation of ^14C-glutamate plus ^14C-glutamine,"ex vivo rat retinas; 1 mM GBP, 20 min, 0.2 mM pyruvate, p<0.001",71 % of control
same,formation of ^14C-glutamate plus ^14C-glutamine,"ex vivo rat retinas; 1 mM GBP, 20 min, 0.2 mM pyruvate, control 3.18 ± 0.12",2.26 ± 0.05 nmol/mg
same,incorporation of carbon 14 into lactate and citric acid cycle intermediates,"ex vivo rat retinas; 1 mM GBP, control 1.93 ± .06, increase not significant",2.12 ± 0.13 nmoles of H^14CO3/mg protein
same,H^14CO3 incorporation into lactate and citric acid cycle intermediates,ex vivo rat retinas; GBP 1 mM,without slowing
same,Inhibition of de novo glutamate synthesis after addition of BCAA,ex vivo rat retinas; GBP 1 mM plus 0.6 mM BCAA,reversed
same,inhibition at 1000 µM,"ex vivo rat retinas; Rattus norvegicus, GBP 1 mM, read-out: inhibited synthesis of ^14C-glutamate plus ^14C-glutamine from H^14CO3",31%
same,TCA cycle,"ex vivo rat retinas; compartment in (retina), estimated as total counts minus eluted counts, 20 min, GBP 1 mM",1.514 ± 0.103 nmoles of H^14CO3/mg protein
same,Asp,ex vivo rat retinas; [3],0.549 ± 0.019 nmoles of H^14CO3/mg protein
same,Gln,ex vivo rat retinas; [3],0.389 ± 0.026 nmoles of H^14CO3/mg protein
same,Glu,ex vivo rat retinas; [3],1.324 ± 0.025 nmoles of H^14CO3/mg protein
same,Total,ex vivo rat retinas; [3],3.902 ± 0.122 nmoles of H^14CO3/mg protein
same,Lact,ex vivo rat retinas; [3],0.089 ± 0.006 nmoles of H^14CO3/mg protein
same,Asp,ex vivo rat retinas; [4],0.035 ± 0.003 nmoles of H^14CO3/mg protein
same,Gln,ex vivo rat retinas; [4],0.545 ± 0.024 nmoles of H^14CO3/mg protein
same,Glu,ex vivo rat retinas; [4],0.008 ± 0.002 nmoles of H^14CO3/mg protein
same,TCA cycle,ex vivo rat retinas; [4],0 nmoles of H^14CO3/mg protein
same,Total,ex vivo rat retinas; [4],1.066 ± 0.028 nmoles of H^14CO3/mg protein
same,Lact,ex vivo rat retinas; [4],0.516 ± 0.030 nmoles of H^14CO3/mg protein
same,Asp,ex vivo rat retinas; [5],0.584 ± 0.022 nmoles of H^14CO3/mg protein
same,Gln,ex vivo rat retinas; [5],0.934 ± 0.036 nmoles of H^14CO3/mg protein
same,Glu,ex vivo rat retinas; [5],1.332 ± 0.025 nmoles of H^14CO3/mg protein
same,TCA cycle,ex vivo rat retinas; [5],1.514 ± 0.103 nmoles of H^14CO3/mg protein
same,Total,ex vivo rat retinas; [5],4.968 ± 0.028 nmoles of H^14CO3/mg protein
same,Lact,ex vivo rat retinas; [5],0.605 ± 0.028 nmoles of H^14CO3/mg protein
same,synthesis of leucine,[1],inhibits
same,inhibition of BCATm,BCATm,not
